Test results: patent US8648068B2, “Heterocycloalkyl-containing thienopyrimidines for pharmaceutical compositions” (Boehringer Ingelheim International GmbH, priority 2010, dated 2014)
pIC50: −log10 of the molar value. Structures can show the parent of a compound that is named as a salt.

Target: T1, human Mnk2a (Homo sapiens, UniProt Q9HBH9)
T1 construct: made in house; host or cells: E. coli BL21 (vector pGEX-4T1)
Experiment: Mnk2a in vitro kinase assay (indirect fluorescence polarization)
Format: biochemical
Settings: GST-Mnk2a pre-activated with ERK2, 20 μM ATP, 30 μM substrate peptide; read-out: MNK2 IC50
Description: Inhibitory potency of compounds against Mnk1, Mnk2a and other kinases was assessed with assays based on a format known to those skilled in the art as the indirect (competitive) fluorescence polarization. The assay detection system comprises a small fluorophore-labeled phospho-peptide (termed ligand) bound to a phospho-specific antibody. The product generated by the kinase reaction competes with the ligand for antibody binding. Based on the larger molecular volume of the bound ligand, which results in a lower rotation rate in solution, its emitted light has a higher degree of polarization than the one from the free ligand.
As a source of enzyme, human Mnk1 and human Mnk2a were expressed as GST fusion proteins in E. coli, purified to >80% homogeneity by glutathione affinity chromatography and activated in vitro with pre-activated ERK2. In brief, the open reading frames of human Mnk1 and Mnk2a were amplified from cDNA using the forward/reverse primer pairs
(utilized restriction sites underlined), respectively, and cloned into the BamHI and SalI sites of the vector pGEX-4T1 (Amersham, Sweden, cat. no. 27-4580-01). These constructs allow prokaryotic expression of Mnk1 or Mnk2a as fusion protein with a N-terminal glutathione S-transferase (GST) tag, referred to as GST-Mnk1 or GST-Mnk2a. The following expression and purification procedure was identical for GST-Mnk1 and GST-Mnk2a, referring in general to GST-Mnk, when not distinguishing between the two isoforms. Expression of GST-Mnk was in E. coli BL21 (Merck Biosciences, Germany, cat. no. 69449). Cells were grown in LB-Bouillon (Merck, Germany, cat. no. 1.10285) supplemented with 100 μg/ml ampicillin (Sigma, Germany, cat. no. A9518) at 37° C. When the culture had reached a density corresponding to an A600 of 0.8, an equal volume of ice cold LB/ampicillin was added, the culture transferred to 25° C. and induced for 4 h with 1 mM isopropyl thiogalactoside (IPTG, Roth, Germany, cat. no. 2316.4). Cells harvested by centrifugation were resuspended in 10 ml lysis buffer (50 mM tris(hydroxymethyl)aminomethane hydrochloride (Tris/HCl, Sigma, Germany, cat. no. T5941) pH 7.5, 300 mM sodium chloride (NaCl, Sigma, Germany, cat. no. S7653), 5% (w/v) glycerol (Sigma, Germany, cat. no. G5516), 3 mM DTT dithiotreitol (DTT, Sigma, Germany, cat. no. D9779)) per gram wet weight cell pellet. Lysates were prepared by disruption of cells with a sonifier and subsequent clearing by centrifugation at 38000 g for 45 min at 4° C.
The lysate was applied to a GSTPrep FF 16/10 column (Amersham, Sweden, cat. no. 17-5234-01) equilibrated with lysis buffer. Removal of unbound material was with 3 column volumes (CV) lysis buffer. Elution was with 2 CV of elution buffer (50 mM Tris/HCl pH 7.5, 300 mM NaCl, 5% (w/v) glycerol, 20 mM glutathione (Sigma, Germany, cat. no. G4251)). Peak fractions were pooled and the protein transferred into storage buffer (50 mM Tris/HCl pH 7.5, 200 mM NaCl, 0.1 mM ethylene glycol-bis(2-aminoethylether)-N,N,N′,N′-tetraacetic acid (EGTA, Aldrich, Germany, cat. no. 23, 453-2), 1 mM DTT, 10% (w/v) glycerol, 0.5 M sucrose (Sigma, Germany, cat. no. SO389) by gel filtration on a PD10 desalting column (Amersham, Sweden, cat. no. 17-0851-01). Aliquots were shock frozen in liquid nitrogen and stored at −80° C.
Activation of Mnk1 and Mnk2a was at a concentration of 2.5 μM of either purified GST-Mnk1 or GST-Mnk2a by incubation with 150 nM pre-activated NHis-ERK2 (see ERK2 assay for preparation) and 50 μM adenosine triphosphate (ATP, Sigma, cat. no. A2699) in a buffer comprising 20 mM N-(2-hydroxyethyl)piperazine-N′-(2-ethanesulfonic acid) (HEPES, Fluka, Germany, cat. no 54459)/potassium hydroxide (KOH, Roth, Germany, cat. no 6751.1) pH 7.4, 10 mM magnesium chloride (MgCl2, Sigma, Germany, cat. no. M2670), 0.25 mM DTT, 0.05% (w/v) polyoxyethylene 20 stearylether (Brij 78, Sigma, Germany, cat. no. P4019) (HMDB buffer) for 45 min at 30° C. […]

T1 sequence (Q9HBH9 whole entry): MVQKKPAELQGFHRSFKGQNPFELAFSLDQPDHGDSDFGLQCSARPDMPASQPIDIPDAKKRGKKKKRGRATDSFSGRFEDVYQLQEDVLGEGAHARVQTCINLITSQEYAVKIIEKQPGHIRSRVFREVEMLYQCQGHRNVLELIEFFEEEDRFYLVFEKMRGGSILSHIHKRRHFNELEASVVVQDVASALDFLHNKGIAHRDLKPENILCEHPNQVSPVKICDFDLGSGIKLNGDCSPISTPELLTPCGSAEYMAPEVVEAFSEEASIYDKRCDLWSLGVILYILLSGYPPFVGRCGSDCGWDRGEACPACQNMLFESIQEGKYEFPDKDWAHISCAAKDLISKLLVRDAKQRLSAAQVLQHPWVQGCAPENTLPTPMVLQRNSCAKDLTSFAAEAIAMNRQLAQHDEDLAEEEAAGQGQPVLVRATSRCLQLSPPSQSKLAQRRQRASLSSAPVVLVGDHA

| Compound | pIC50 |
| --- | --- |
| Cc1c(C(=O)NC2CCCNCC2)sc2ncnc(Nc3ccc(F)cc3O[C@H]3CCOC3)c12 (stereo partly drawn) [Example 273, 4-{4-Fluoro-2-[(S)-(tetrahydro-furan-3-yl)oxy]-phenylamino}-5-methyl-thieno[2,3-d]pyrimidine-6-carboxylic acid azepan-4-ylamide trifluoroacetate] | 7.31 |
| Cc1c(C(=O)NCCc2cnn(C)c2)sc2ncnc(Nc3ccc(F)cc3OC3CCOCC3)c12 [Example 171] | 7.39 |
| Cc1c(C(=O)N[C@@H]2CC[C@H](N)C2)sc2ncnc(Nc3ccc(F)cc3OC3CCOCC3)c12 [Example 142] | 7.42 |
| Cc1c(C(N)=O)sc2ncnc(Nc3cccnc3O[C@H]3CCCNC3)c12 [Example 69, 5-Methyl-4-[2-((S)-piperidin-3-yloxy)-pyridin-3-ylamino]thieno[2,3-d]pyrimidine-6-carboxylic acid amide] | 7.72 |
| Cc1c(C(=O)NCCc2ccncc2)sc2ncnc(Nc3ccc(F)cc3OC3CCOCC3)c12 [Example 208] | 7.23 |
| Cc1c(C(=O)NC2CCN(C)C2)sc2ncnc(Nc3ccc(F)cc3OC3CCOCC3)c12 (stereo not drawn) [Example 177] | 7.17 |
| Cc1c(C(=O)NCCO)sc2ncnc(Nc3ccc(F)cc3OC3CCOCC3)c12 [Example 211] | 7.54 |
| Cc1c(C(=O)NCC2CN(C)CCO2)sc2ncnc(Nc3ccc(F)cc3O[C@H]3CCOC3)c12 (stereo partly drawn) [Example 110] | 7.68 |
| Cc1c(C(=O)NC2(CO)CCCC2)sc2ncnc(Nc3ccc(F)cc3OC3CCOCC3)c12 [Example 225] | 7.28 |
| Cc1c(C(=O)NCC#CCN(C)C)sc2ncnc(Nc3ccc(F)cc3OC3CCOCC3)c12 [Example 181] | 7.68 |
| Cc1c(C(=O)NCc2ccccc2C#N)sc2ncnc(Nc3ccc(F)cc3OC3CCCNC3)c12 (stereo not drawn) [Example 41] | 7.51 |
| Cc1c(C(=O)NCCS(C)(=O)=O)sc2ncnc(Nc3ccc(F)cc3OC3CCOCC3)c12 [Example 180] | 7.48 |
| Cc1c(C(=O)N[C@@H](C)C(=O)O)sc2ncnc(Nc3ccc(F)cc3OC3CCOCC3)c12 [Example 148] | 7.17 |
| Cc1c(C(=O)NCC2CCCCC2)sc2ncnc(Nc3ccc(F)cc3OC3CCCNC3)c12 (stereo not drawn) [Example 29] | 7.28 |
| Cc1c(C(=O)NCCCN(C)C)sc2ncnc(Nc3ccc(F)cc3O[C@@H]3CCOC3)c12 [Example 103, 4-{4-Fluoro-2-[(R)-(tetrahydro-furan-3-yl)oxy]-phenylamino}-5-methyl-thieno[2,3-d]pyrimidine-6-carboxylic acid (3-dimethylamino-propyl)-amide] | 7.59 |
| Cc1c(C(N)=O)sc2ncnc(Nc3ccc(F)cc3O[C@H]3CCCN(CCO)C3)c12 [Example 6, (S)-4-(4-fluoro-2-(1-(2-hydroxyethyl)piperidin-3-yloxy)phenylamino)-5-methylthieno[2,3-d]pyrimidine-6-carboxamide] | 6.92 |
| Cc1c(C(N)=O)sc2ncnc(Nc3ccc(F)cc3O[C@H]3CCCN(CC(=O)N(C)C)C3)c12 [Example 2] | 6.33 |
| Cc1c(C(=O)NC2CCN(C)CC2)sc2ncnc(Nc3ccc(F)cc3OC3CCN(S(C)(=O)=O)C3)c12 (stereo not drawn) [Example 91] | 7.29 |
| Cc1c(C(=O)NCC2CCOCC2)sc2ncnc(Nc3ccc(F)cc3OC3CCCNC3)c12 (stereo not drawn) [Example 32] | 7.26 |

The remaining molecules from weak to strong by pIC50, led by results:

| pIC50 | Compound |
| --- | --- |
| 6.31 | COCCN1CCC[C@H](Oc2cc(F)ccc2Nc2ncnc3sc(C(N)=O)c(C)c23)C1 [Example 1, 4-{4-Fluoro-2-[(S)-1-(2-methoxy-ethyl)-piperidin-3-yloxy]-phenylamino}-5-methyl-thieno[2,3-d]pyrimidine-6-carboxylic acid amide] |
| 7.05 | Cc1c(C(N)=O)sc2ncnc(Nc3ccc(F)cc3O[C@@H]3CCCNC3)c12 [Example 71, 4-[4-Fluoro-2-((R)-piperidin-3-yloxy)-phenylamino]-5-methyl-thieno[2,3-d]pyrimidine-6-carboxylic acid amide] |
| 7.19 | Cc1c(C(=O)NCCc2cn[nH]c2)sc2ncnc(Nc3ccc(F)cc3OC3CCCNC3)c12 (stereo not drawn) [Example 28] |
| 7.19 | Cc1c(C(=O)NCc2cccc3ccccc23)sc2ncnc(Nc3ccc(F)cc3OC3CCCNC3)c12 (stereo not drawn) [Example 58] |
| 7.20 | CCC(CO)NC(=O)c1sc2ncnc(Nc3ccc(F)cc3OC3CCOCC3)c2c1C (stereo not drawn) [Example 224] |
| 7.22 | COCC(C)NC(=O)c1sc2ncnc(Nc3ccc(F)cc3OC3CCOCC3)c2c1C (stereo not drawn) [Example 163] |
| 7.25 | Cc1cccc(CNC(=O)c2sc3ncnc(Nc4ccc(F)cc4OC4CCCNC4)c3c2C)c1 (stereo not drawn) [Example 33] |
| 7.28 | Cc1c(C(=O)NCc2cccc(F)c2)sc2ncnc(Nc3ccc(F)cc3OC3CCCNC3)c12 (stereo not drawn) [Example 35] |
| 7.32 | COC[C@@H]1CCCN1CCCNC(=O)c1sc2ncnc(Nc3ccc(F)cc3OC3CCOCC3)c2c1C [Example 122] |
| 7.33 | Cc1c(C(=O)NCC2CC2)sc2ncnc(Nc3ccc(F)cc3OC3CCCNC3)c12 (stereo not drawn) [Example 19] |
| 7.35 | CONC(=O)c1sc2ncnc(Nc3ccc(F)cc3OC3CCN(S(C)(=O)=O)C3)c2c1C (stereo not drawn) [Example 92] |
| 7.37 | Cc1c(C(=O)NC(C)C)sc2ncnc(Nc3ccc(F)cc3OC3CCOCC3)c12 [Example 135] |
| 7.38 | Cc1c(C(=O)NC2CCCC(O)C2)sc2ncnc(Nc3ccc(F)cc3OC3CCOCC3)c12 (stereo not drawn) [Example 192] |
| 7.39 | CONC(=O)c1sc2ncnc(Nc3ccc(F)cc3OC3CCOCC3)c2c1C [Example 239] |
| 7.39 | CCN(CC)CC(O)CNC(=O)c1sc2ncnc(Nc3ccc(F)cc3OC3CCOCC3)c2c1C (stereo not drawn) [Example 248] |
| 7.42 | Cc1c(C(=O)NCc2ccc3sccc3c2)sc2ncnc(Nc3ccc(F)cc3OC3CCCNC3)c12 (stereo not drawn) [Example 61] |
| 7.43 | Cc1c(C(=O)NCC(O)CN(C)C)sc2ncnc(Nc3ccc(F)cc3OC3CCOCC3)c12 (stereo not drawn) [Example 256, 4-[4-Fluoro-2-(tetrahydro-pyran-4-yloxy)-phenylamino]-5-methyl-thieno[2,3-d]pyrimidine-6-carboxylic acid (3-dimethylamino-2-hydroxy-propyl)-amide-hydrochloride] |
| 7.48 | CCOCCCNC(=O)c1sc2ncnc(Nc3ccc(F)cc3OC3CCOCC3)c2c1C [Example 218] |
| 7.49 | Cc1c(C(=O)NCC[S+](C)[O-])sc2ncnc(Nc3ccc(F)cc3OC3CCOCC3)c12 (stereo not drawn) [Example 238] |
| 7.51 | Cc1c(C(=O)NCC(=O)N2CCCC2)sc2ncnc(Nc3ccc(F)cc3OC3CCOCC3)c12 [Example 201] |
| 7.52 | COCCCNC(=O)c1sc2ncnc(Nc3ccc(F)cc3OC3CCOCC3)c2c1C [Example 215] |
| 7.55 | Cc1c(C(N)=O)sc2ncnc(Nc3ccc(F)cc3O[C@@H]3CCCN(Cc4nccs4)C3)c12 [Example 78] |
| 7.60 | Cc1c(C(=O)NCCNS(C)(=O)=O)sc2ncnc(Nc3ccc(F)cc3OC3CCOCC3)c12 [Example 189] |
| 7.68 | Cc1c(C(=O)NCCCN2CC[C@@H](O)C2)sc2ncnc(Nc3ccc(F)cc3OC3CCOCC3)c12 [Example 249] |
| 7.74 | Cc1c(C(=O)N[C@H]2CCNC[C@@H]2O)sc2ncnc(Nc3ccc(F)cc3OC3CCOCC3)c12 [Example 246] |
| 7.82 | Cc1c(C(=O)NCCc2ccc(O)cc2)sc2ncnc(Nc3ccc(F)cc3OC3CCCNC3)c12 (stereo not drawn) [Example 46] |
